Data from US20210379042A1, “METHODS FOR MONITORING TUMOR LYSIS SYNDROME” (Sumitomo Dainippon Pharma Oncology, Inc., priority 2018, published 2021).

What was measured:
[1] = test system: cancer patients being treated with alvocidib; assay: Clinical trials using a TLS monitoring protocol described herein: deaths attributed to TLS; format: in vivo, human; conditions: to date
Text: Current protocols for monitoring the development of TLS in patients vary greatly due to interindividual clinician experience and different standards of care among institutions. The risk for and rapid development of TLS in cancer patients being treated with alvocidib presents a need for more precise but clinically practical TLS monitoring protocols that allow subjects to remain on alvocidib treatment and avoid dose-limiting TLS. To date, there have been no deaths attributed to TLS in clinical trials using a TLS monitoring protocol described herein.

[2] = test system: patients having newly diagnosed AML; assay: Example 5: alvocidib plus daunorubicin/cytarabine (ACD) with TLS monitoring, treatment-emergent adverse events classified as TLS; format: in vivo, human
Description: This study will evaluate the safety and efficacy of alvocidib in combination with cytarabine/daunorubicin (7+3) in patients with newly diagnosed AML. Treatment consists of increasing dose levels of alvocidib starting at 20 mg/m^2 as a 30-minute IV bolus followed by 30 mg/m^2 over 4 hours on days 1-3, cytarabine 100 mg/m^2/day by continuous IV infusion on days 5-11, followed by (e.g., followed about 30 minutes later by) daunorubicin 60 mg/m^2 IV on days 5-7. Reinduction therapy with alvocidib (same dose as induction) days 1-3, followed by cytarabine 100 mg/m^2/day continuous IV on days 5-9, and daunorubicin 45 mg/m^2 IV days 5-6 is recommended in patients with >10% and >5% cellularity and blasts, respectively.
For patients at high risk for TLS, including those with risk scores of greater than or equal to 2 according to Table 1, those with monocytic leukemia phenotype, or those with a history of FLT3 positive AML, monitoring will include: (i) obtaining a STAT serum potassium at the end of an alvocidib infusion; (ii) obtaining a serum potassium 2 hours after the end of an alvocidib infusion, (iii) obtaining a full TLS panel 4 hours after the end of an alvocidib infusion, and (iv) monitoring fibrinogen levels at baseline and then as clinically indicated. If there is evidence of clinically meaningful TLS, a TLS panel will be obtained every 2 hours during the first 24 hours after the end of an alvocidib infusion (assessment of LDH levels at least once every 24 hours is also recommended). If there is no evidence of clinically meaningful TLS, a TLS panel will be obtained every 4 hours during the first 24 hours after the end of an alvocidib infusion (assessment of LDH levels at least once every 24 hours is also recommended). If, after the first 24 hours after the end of an alvocidib infusion, there is no evidence of TLS, a TLS panel will be obtained approximately every 6 hours for the remainder of alvocidib treatment, and then every 12 hours after completion of alvocidib during daunorubicin and cytarabine treatment (assessment of LDH levels at least once every 24 hours is also recommended).
For patients not at high risk for TLS, tumor lysis evaluations will be monitored at the start of alvocidib treatment and approximately every 4 hours thereafter for 24 hours. Laboratory studies during this period will be run as a “STAT” to ensure the results are available in a timely manner. If there is no evidence of TLS during first the 24 hours, then tumor lysis evaluations will be monitored approximately every 6-8 hours for the remainder of alvocidib treatment, and then every 12 hours after the completion of alvocidib during cytarabine and daunorubicin treatment. Fibrinogen levels will be monitored at baseline and then as clinically indicated.
Patients were treated with ACD according to a treatment regimen similar to that described in Example 2, and monitored for TLS according to the monitoring protocols described in Example 2. Briefly, treatment consisted of increasing dose levels of alvocidib starting at 20 mg/m^2 as a 30-minute (±10 minutes) IV bolus followed by 30 mg/m^2 as a 4-hour (±15 minutes) IV infusion on days 1-3, followed by daunorubicin 60 mg/m^2 IV on days 5-7 via IV bolus of up to 15 minutes (±5 minutes) in duration each day, followed by (e.g., followed immediately by) cytarabine 100 mg/m^2/day by 24-hour (±2 hours) continuous IV infusion on days 5-11. Reinduction therapy with alvocidib (same dose as induction) days 1-3, followed by daunorubicin 45 mg/m^2 IV via IV bolus of up to 15 minutes (±5 minutes) in duration each day on days 5-6, followed by (e.g., followed immediately by) cytarabine 100 mg/m^2/day continuous, 24-hour IV infusion (±2 hours) on days 5-9, was recommended in patients with evidence of residual leukemia, defined as >5% bone marrow blasts plus >10% cellularity, based on day 14 (±3 days) bone marrow. […]

[3] = statement without data; prodrugs described in WO 2016/187316 and WO 2018/094275; cited from earlier work
[4] = Study Total, all dose levels (N = 31)
[5] = alvocidib 30/40 mg/m^2 (bolus/infusion) days 1-3 with daunorubicin and cytarabine (N = 3)
[6] = alvocidib 30/60 mg/m^2 (bolus/infusion) days 1-3 with daunorubicin and cytarabine (N = 22)

SMILES	deaths attributed to TLS [1]	Tumor lysis syndrome, treatment-emergent adverse events, number of patients [2, 4]	Tumor lysis syndrome, treatment-emergent adverse events, percent of patients [2, 4] [%]	Tumor lysis syndrome, treatment-emergent adverse events, number of patients ([2]; alvocidib 20/30 mg/m^2 (bolus/infusion) days 1-3 with daunorubicin and cytarabine (N = 3))	Tumor lysis syndrome, treatment-emergent adverse events, number of patients [2, 5]	Tumor lysis syndrome, treatment-emergent adverse events, percent of patients [2, 5] [%]	Tumor lysis syndrome, treatment-emergent adverse events, number of patients ([2]; alvocidib 30/50 mg/m^2 (bolus/infusion) days 1-3 with daunorubicin and cytarabine (N = 3))	Tumor lysis syndrome, treatment-emergent adverse events, number of patients [2, 6]	Tumor lysis syndrome, treatment-emergent adverse events, percent of patients [2, 6] [%]	oral bioavailability [3]
CN1CC[C@H](c2c(O)cc(O)c3c(=O)cc(-c4ccccc4Cl)oc23)[C@H](O)C1 [Alvocidib, 2-(2-chlorophenyl)-5,7-dihydroxy-8-[(3 S,4R)-3-hydroxy-1-methylpiperidin-4-yl]chromen-4-one]	no deaths	8	25.8	0	1	33.3	0	7	31.8	–
CN1CC[C@H](c2c(OP(=O)(O)O)cc(O)c3c(=O)cc(-c4ccccc4Cl)oc23)[C@H](O)C1 [Ia]	–	–	–	–	–	–	–	–	–	orally bioavailable
